Measured values reported in the supplement of paper PMC10307832.

Experiments:
Assay in all cases: relative viability (nuclei count vs DMSO), 5 days (fraction); higher = more cells survive
Bemcentinib + Pemetrexed = compound: Nc1nc(Nc2ccc3c(c2)CC[C@@H](N2CCCC2)CC3)nn1-c1cc2c(nn1)-c1ccccc1CCC2 [Bemcentinib] + Nc1nc2[nH]cc(CCc3ccc(C(=O)N[C@@H](CCC(=O)O)C(=O)O)cc3)c2c(=O)[nH]1 [Pemetrexed] (partner 0.2 µM)
Method in brief: (§1)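 For relative viability, nuclei counts in treated wells were divided by those in vehicle wells. Lung cancer cell lines had been pin-tool dosed in 1536-well plates the day after seeding and cultured for 5 days, then fixed and stained in one step (final 0.05% Triton X-100, 1% formaldehyde, 1 ug/ml Hoechst) and imaged at 4×. Doses were one drug alone or a fixed anchor-drug dose plus five library-drug doses (not always all listed) in √10 steps, and values are duplicate-plate medians.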

Bemcentinib + Luminespib = compound: Nc1nc(Nc2ccc3c(c2)CC[C@@H](N2CCCC2)CC3)nn1-c1cc2c(nn1)-c1ccccc1CCC2 [Bemcentinib] + CCNC(=O)c1noc(-c2cc(C(C)C)c(O)cc2O)c1-c1ccc(CN2CCOCC2)cc1 [Luminespib] (partner 0.01 µM)
Method in brief: as §1

Axitinib + Crizotinib = compound: CNC(=O)c1ccccc1Sc1ccc2c(/C=C/c3ccccn3)n[nH]c2c1 [Axitinib] + C[C@@H](Oc1cc(-c2cnn(C3CCNCC3)c2)cnc1N)c1c(Cl)ccc(F)c1Cl [Crizotinib] (partner 1 µM)
Method in brief: as §1

Bemcentinib + Crizotinib = compound: Nc1nc(Nc2ccc3c(c2)CC[C@@H](N2CCCC2)CC3)nn1-c1cc2c(nn1)-c1ccccc1CCC2 [Bemcentinib] + C[C@@H](Oc1cc(-c2cnn(C3CCNCC3)c2)cnc1N)c1c(Cl)ccc(F)c1Cl [Crizotinib] (partner 1 µM)
Method in brief: as §1

Cell Line	relative viability (Bemcentinib + Pemetrexed; first compound 0.04 µM)	relative viability (Bemcentinib + Pemetrexed; first compound 0.1265 µM)	relative viability (Bemcentinib + Pemetrexed; first compound 0.4 µM)	relative viability (Bemcentinib + Pemetrexed; first compound 1.265 µM)	relative viability (Bemcentinib + Pemetrexed; first compound 4 µM)	relative viability (Bemcentinib + Luminespib; first compound 0.04 µM)	relative viability (Bemcentinib + Luminespib; first compound 0.1265 µM)	relative viability (Bemcentinib + Luminespib; first compound 0.4 µM)	relative viability (Bemcentinib + Luminespib; first compound 1.265 µM)	relative viability (Bemcentinib + Luminespib; first compound 4 µM)	relative viability (Axitinib + Crizotinib; first compound 0.005 µM)	relative viability (Axitinib + Crizotinib; first compound 0.01581 µM)	relative viability (Axitinib + Crizotinib; first compound 0.05 µM)	relative viability (Axitinib + Crizotinib; first compound 0.1581 µM)	relative viability (Axitinib + Crizotinib; first compound 0.5 µM)	relative viability (Bemcentinib + Crizotinib; first compound 0.04 µM)	relative viability (Bemcentinib + Crizotinib; first compound 0.1265 µM)	relative viability (Bemcentinib + Crizotinib; first compound 0.4 µM)	relative viability (Bemcentinib + Crizotinib; first compound 1.265 µM)	relative viability (Bemcentinib + Crizotinib; first compound 4 µM)
201T	0.307	0.361	0.326	0.361	0.327	1.07	1.05	1.14	1.07	1.14	1.06	1.05	1.05	1.07	1.02	1.05	1.03	0.983	1.05	1.07
A549	–	–	–	–	–	–	–	–	–	–	0.763	0.734	0.776	0.49	0.744	0.786	0.795	0.966	0.824	0.742
A-427	0.966	1.02	1.08	0.928	0.936	1.04	1.09	0.934	0.822	0.737	1	0.958	0.82	0.898	0.901	–	0.95	0.843	0.931	0.863
ABC-1	–	–	–	–	–	0.456	0.682	0.801	1.02	0.741	1.21	1.28	1.2	1.13	1.28	1.06	1.26	0.934	0.95	1.02
BEN	0.62	0.895	0.782	0.678	0.592	0.178	0.395	0.563	0.199	0.236	0.897	1.04	0.788	0.807	0.925	0.936	1.16	0.935	0.845	0.775
CAL-12T	1.11	1.47	1.09	1.1	1.13	0.273	0.462	0.388	0.363	0.453	0.675	0.75	0.529	0.834	0.537	0.394	0.767	0.679	0.62	0.525
COR-L23	0.195	0.204	0.204	0.19	0.202	0.628	0.903	0.807	0.827	0.913	0.696	0.564	0.596	0.623	0.778	0.65	0.787	0.729	0.784	0.56
COR-L 105	0.989	1.12	1.18	0.93	1.03	0.741	0.839	0.893	0.704	0.783	0.841	0.965	0.86	0.776	0.968	0.638	0.843	0.969	0.641	0.621
Calu-6	–	–	–	–	–	–	–	–	–	–	0.82	0.795	0.783	0.865	0.961	0.76	0.958	1.09	0.858	0.676
ChaGo-K-1	0.265	0.262	0.274	0.244	0.251	0.573	0.542	0.701	0.843	0.587	1.1	1.17	1.13	1.05	1.15	1.12	1.33	1.15	1.18	1.12
EBC-1	–	–	–	–	–	–	–	–	–	–	0.22	0.213	0.192	0.202	0.195	0.185	0.214	0.179	0.236	0.193
EKVX	0.355	0.42	0.422	0.401	0.333	0.825	0.878	0.923	0.838	0.863	1.03	0.896	0.785	0.904	0.958	0.973	0.981	1.06	1.03	0.986
EMC-BAC-2	0.442	0.475	0.48	0.416	0.419	1.24	1.29	1.16	1.19	1.2	0.819	0.859	0.766	0.754	0.719	0.788	0.801	0.776	0.836	0.831
EPLC-272H	0.313	0.337	0.371	0.319	0.291	0.25	0.658	0.279	0.353	0.318	0.893	0.989	0.76	0.986	0.937	–	0.96	1.05	0.86	1.01
H3255	0.533	0.616	0.585	0.624	0.517	0.745	1.07	0.793	0.777	0.747	0.975	0.79	0.764	0.77	1	0.867	0.938	0.914	0.878	0.888
